Results on 14 compounds are retold here after PMC4636305, “Identification of Small-Molecule Inhibitors against Meso-2, 6-Diaminopimelate Dehydrogenase from Porphyromonas gingivalis” (PLoS ONE, 2015).

Converted amounts (≈) assume the structure as drawn. “Also recorded” adds a separate entry of the source. Like-named read-outs stand apart in the source and are kept apart here. Residues, ends and D or L forms follow the SMILES beside them.

One assay relates to S. sanguinis. Nature of the assay: MIC, broth microdilution. The assay is classed as cell-based, Streptococcus sanguinis. Particulars: for MIC: Streptococcus sanguinis, S. sanguinis, lacks the target m-Ddh, n = 3; for S. sanguinis MIC relative to MIC of P. gingivalis: selectivity. On the technique in general: Broth dilution looks for growth in wells or tubes with falling amounts of substance.

Assay [1] addresses Meso-diaminopimelate dehydrogenase (m-Ddh) from P. gingivalis (Porphyromonas gingivalis, UniProt Q7MW40). Description: m-Ddh kinetic assay, inhibitor screening and IC50 determination. The format is biochemical. The note with it: for IC50: 400 μM m-DAP, 180 μM NADP+, pH 10.5, 25°C, three independent experiments; for IC50 with addition of Triton-X 100 versus without: .01% Triton-X 100, test for aggregation-based inhibition; for inhibition at 3000 µM: read-out: % inhibition of enzymatic activity at 3 mM. As to the method:
(§1) The enzymatic activity for m-Ddh was determined by observing the standard oxidative deamination reaction of the substrate meso-diaminopimelate. The reaction contained 400 μM of meso-diaminopimelate (Sigma-Aldrich, St. Louis, MO), 180 μM NADP^+ (Sigma-Aldrich, St. Louis, MO), 200 mM glycine-KCl-KOH buffer (pH 10.5), and the enzyme in a final volume of 1 ml. The reaction was initiated with the addition of NADP^+. The reaction velocity was calculated from the increase in absorbance at 340 nm, spectrophotometrically monitored at 25°C, where one unit of enzyme was defined as the amount of enzyme catalyzing the formation of […] of NADPH per min.
A range of concentrations (0–3 mM) of each small-molecule compound inhibitor were added to the standard reaction and the percent of m-Ddh enzymatic inhibition was measured by the kinetic assay described above. Percent inhibition was determined by the formula: (rateofreactionnoinhibitor)−(rateofreactioninhibitor)/rateofreactionnoinhibitor×100. The concentration of each compound inhibitor which caused 50% enzymatic inhibition (IC50) was calculated using PRISM v6.04 software (Graphpad, San Diego, CA) from three independent experiments.

The test system of assay [2] is P. gingivalis. Description: Time-kill assay. The note with it: for reduction of viable P. gingivalis cell count: 5× MIC. The format is cell-based, Porphyromonas gingivalis. As to the method:
P. gingivalis cells were grown overnight and the following day diluted 1/10 into fresh medium. Cells were allowed to grow to mid-log phase (OD600 ≈ 0.5) then diluted to a final cell suspension of 1×10^5 CFU/ml. Compounds were added at a concentration of 5x the MIC determined from the 96-well broth microdilution assay. Samples were taken at different time intervals (0, 0.25, 0.5, 1, 2, 3, 4, 6 and 24 hours) and plated on tryptic soy agar plates supplemented with 5% sheep blood (Becton, Dickinson, Franklin Lakes, NJ) using an automated Eddy Jet spiral plater (Neutec Group, Farmingdale, NY). Plates were incubated at 37°C in anaerobic conditions for 7 days.

The subject of another assay is P. gingivalis cells. Description: SEM analysis of compound exposed cells. The assay is classed as cell-based, Porphyromonas gingivalis. Particulars: treated P. gingivalis cells; Compounds 4 and 5 at 5x MIC. As to the method:
Untreated or treated P. gingivalis cells were deposited onto a 0.1 μm disposable Millipore filter to remove medium, and samples were fixed using 2% glutaraldehyde in 0.1 M sodium cacodylate buffer (pH 7.4) for 30 min, followed by 1% osmium tetroxide in 0.1 M sodium cacodylate buffer (pH 7.4). Samples embedded in the filters were then dehydrated in ethanol followed by hexamethyldisilazane (HMDS) and allowed to air-dry. The filters were sectioned and mounted onto stubs and coated with gold for three minutes (EMS– 550 Automated Sputter Coater, Electron Microscopy Sciences, Hatfield, PA). Micrographs were taken at 30,000× total magnification using a Zeiss EVO 50 XVP scanning electron microscope (Carl Zeiss, Peabody, MA).

Assay [3] concerns P. gingivalis. Description: MBC, plating of MIC wells without visible growth. The assay is classed as cell-based, Porphyromonas gingivalis. The note with it: for MBC: Porphyromonas gingivalis, 168 h, plated 7 days, anaerobic, n = 3. As to the method: Samples were plated on tryptic soy agar plates supplemented with 5% sheep blood (Becton, Dickinson, Franklin Lakes, NJ) and incubated at 37°C in anaerobic conditions for 7 days.

For assay [4], the system named is P. gingivalis. Description: MIC, broth microdilution. The assay is classed as cell-based, Porphyromonas gingivalis. As to the method: Minimal Inhibitory Concentration (MIC) assays were performed using a broth microdilution method. P. gingivalis cells were grown overnight and the following day diluted 1/10 into fresh medium. Cells were allowed to grow to mid-log phase (OD600 ≈ 0.5). Compounds were serially diluted in 96-well microtiter plates (Jet Biofil, Genesee Scientific, San Diego, CA) and an aliquot of the cell suspension was added to each well with the compound inhibitor sample for a final cell count of 1×10^5 CFU/ml. Plates were incubated for five days at 37°C in anaerobic conditions.

The subject of assay [5] is m-Ddh. Also on record: method as in PMID 21616177. Particulars: C. thermocellum m-Ddh; cited from earlier work.
Assay [6] has as its system m-Ddh. Description: Determination of kinetic parameters of m-Ddh. The format is biochemical, Porphyromonas gingivalis. Particulars: pH 10.5, 25°C, other substrate held at 0.5 mM; for Km: read-out: apparent Km. As to the method:
as §1
Initial velocity measurements for m-DAP and NADP^+ were determined at 25°C in a similar reaction for the standard oxidative deamination reaction assay. The reaction contained 200 mM glycine-KCl-KOH buffer (pH 10.5) with m-DAP as the variable substrate with concentrations between 0.001 mM and 1 mM and NADP^+ held constant at a saturating concentration of 0.5 mM or NADP^+ as the variable substrate with concentrations between 0.01 mM to 1 mM and m-DAP held constant at 0.5 mM. Km and Vmax values were determined through non-linear fitting. All assays were performed in triplicates and non-linear fitting Michaelis-Menten data were calculated from Graphpad Prism version 5.04 (Graphpad, San Diego, CA).

[7] abbreviates: compound at 3 mM, initial screen.
Setting [8] is: Porphyromonas gingivalis, 120 h, five days, 37°C, anaerobic, n = 3.

Sequence of Meso-diaminopimelate dehydrogenase (m-Ddh) from P. gingivalis (Q7MW40 entry or part of it): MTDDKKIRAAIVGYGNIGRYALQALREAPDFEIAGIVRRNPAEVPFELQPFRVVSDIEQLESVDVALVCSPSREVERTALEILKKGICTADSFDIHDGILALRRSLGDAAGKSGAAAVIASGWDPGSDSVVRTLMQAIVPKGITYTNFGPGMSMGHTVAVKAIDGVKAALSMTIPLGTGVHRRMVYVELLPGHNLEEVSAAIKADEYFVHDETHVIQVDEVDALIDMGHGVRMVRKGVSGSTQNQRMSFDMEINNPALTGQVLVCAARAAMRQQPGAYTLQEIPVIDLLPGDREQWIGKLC

As a reminder, the MIC is the lowest concentration that inhibits growth of the organism. The term IC50 denotes the concentration at which inhibition is half-maximal. The term inhibition denotes the share of the control response that was lost under treatment. For orientation: MBC means the smallest concentration meeting the test's criterion for killing. Consider `COc1ccc(S(=O)(=O)Nc2nc3ccccc3nc2Nc2cccc(C(=O)O)c2)cc1` [Compound 4], for which, in the assay with S. sanguinis, the minimum inhibitory concentration (MIC) amounted to 1740 µM (≈ 784 µg/mL) and the “S. sanguinis MIC relative to MIC of P. gingivalis” value is on record as 7 ×. In assay [1], the IC50 came out at 157 ± 26 µM and the “IC50 with addition of Triton-X 100 versus without” value is reported as “no difference in activity”. Further, in assay [1] (setting [7]), the inhibition at 3000 µM was not below 90%. In the assay on P. gingivalis [2] (5x MIC, after six hours of treatment), the “P. gingivalis cell count” value is listed as “maintained a low cell count”. Also, the “reduction of viable P. gingivalis cell count” value with P. gingivalis [2] (within 6 h of exposure) is reported as 2 log10 CFU /ml. The “cellular structure by SEM” value in the assay with P. gingivalis cells is listed as “alteration of the cellular structure”. Also, in the assay on P. gingivalis [3], the “MBC to MIC ratio” value is on record as “less than 4” and the MBC turned out to be 374 µM (≈ 168 µg/mL). This compound also had an MIC in the assay with P. gingivalis [4] (setting [8]) of 250 µM (≈ 113 µg/mL).
Regarding `Cc1cc(S(=O)(=O)Nc2cc(SCCC(=O)O)c(O)c3ccccc23)ccc1F` [Compound 5], in the assay with S. sanguinis, inhibition of growth (MIC) required 305 µM (≈ 133 µg/mL) and the “S. sanguinis MIC relative to MIC of P. gingivalis” value was “almost double”. For the same compound, in assay [1], the midpoint of inhibition, the IC50, lay at 310 ± 23 µM and the “IC50 with addition of Triton-X 100 versus without” value is “no difference in activity”. For the same compound, in assay [1] (setting [7]), the inhibition at 3000 µM was not below 90%. Also, the “P. gingivalis cell viability” value in the assay on P. gingivalis [2] (5x MIC, after two hours of exposure) is recorded as “no viable cell count; also recorded: complete elimination”. In addition, the “reduction of viable P. gingivalis cell count” value in the assay on P. gingivalis [2] (after 2 h of exposure) is reported as 5 log10 CFU/ml. The “cellular structure by SEM” value in the assay with P. gingivalis cells is reported as “alteration of the cellular structure”. In the assay with P. gingivalis [3], the “MBC to MIC ratio” value is recorded as “less than 4” and the MBC was 254 µM (≈ 111 µg/mL). The compound also gave an MIC with P. gingivalis [4] (setting [8]) of 167 µM (≈ 72.9 µg/mL). The compound also returned an MIC in the assay with P. gingivalis [4] (five days, 37°C, anaerobic, n = 3) of 167 µM (≈ 72.7 µg/mL).
As for `O=C(O)CCC(=O)Nc1ccc(S(=O)(=O)Nc2cnc3ccccc3n2)cc1` [Compound 6], the MIC against S. sanguinis was 3310 µM (≈ 1330 µg/mL); against P. gingivalis [4] (setting [8]), 2820 µM (≈ 1130 µg/mL); against P. gingivalis [4] (Porphyromonas gingivalis, bound stated), more than 2000 µM. The half-inhibitory concentration (IC50) in assay [1] amounted to 356 ± 16 µM. In assay [1], the “IC50 with addition of Triton-X 100 versus without” value is “no difference in activity”. Besides, the inhibition at 3000 µM in assay [1] (setting [7]) is not below 90%.
As for `CCC[C@@H]1CN(c2nc(C)ccc2C(=O)O)C[C@H]1C(=O)O` [Compound 7], the IC50 in assay [1] was 1160 ± 175 µM. Further, in assay [1] (setting [7]), the inhibition at 3000 µM is not below 90%.
On to `NCc1[nH]cc(CCC(=O)O)c1CC(=O)O` [Compound 8], for which the “% inhibition of enzymatic activity at 3 mM” value in assay [1] (setting [7]) is “No inhibition at 3 mM”.
The same measure, in the same setting: in the case of `O=C(O)c1sccc1S(=O)(=O)Nc1cccc2[nH]ncc12` [Compound 9] it was “No inhibition at 3 mM”.
Take `N[C@@H](CC(=O)O)C(=O)N[C@@H](Cc1ccccc1)C(=O)O` [Compound 10] (H-Asp-Phe-OH): the inhibition at 3000 µM in assay [1] was determined as 2%.
On to `O=C(O)CCCC(O)(O)C(=O)O` [Compound 11], for which the inhibition at 3000 µM in assay [1] (setting [7]) was 13%.
With `O=C(O)c1cccc(S(=O)(=O)Nc2ccnc(Sc3ccccn3)c2)c1` [Compound 12], in assay [1] (setting [7]), the “% inhibition of enzymatic activity at 3 mM” value was “No inhibition at 3 mM”.
Turning to `O=C(O)c1cccc(NS(=O)(=O)c2ccc(O)c(C(=O)O)c2)c1` [Compound 13], the inhibition at 3000 µM in assay [1] (setting [7]) was found to be 6%.
`Cc1n[nH]c(C)c1S(=O)(=O)Nc1cccc(NS(=O)(=O)c2ccccc2)c1` [Compound 14]: in assay [1] (setting [7]), the inhibition at 3000 µM turned out to be 17%.
As a reminder, the Km is the concentration of substrate that gives half-maximal velocity. A word on the Vmax: it is the top rate of the reaction or transport when substrate is in excess. As for `NC(=O)c1ccc[n+]([C@@H]2O[C@H](COP(=O)([O-])OP(=O)(O)OC[C@H]3O[C@@H](n4cnc5c(N)ncnc54)[C@H](OP(=O)(O)O)[C@@H]3O)[C@@H](O)[C@H]2O)c1` [NADP^+], the Km in the assay with m-Ddh [5] was 90 µM. Also, in the assay on m-Ddh [6], the Vmax was determined as 91.95 nmol/s and the Km was 60 µM.
As for `CC1(C)S[C@@H]2[C@H](NC(=O)[C@H](N)c3ccccc3)C(=O)N2[C@H]1C(=O)O` [ampicillin, reference compound], in the assay with P. gingivalis cells, the “cellular structure by SEM” value is reported as “altered morphology”.
For `N[C@H](CCC[C@H](N)C(=O)O)C(=O)O` [m-DAP, meso-diaminopimelate], in the assay on m-Ddh [6], the Vmax was determined as 130.1 nmol/s and the Michaelis constant (Km) was 370 µM.
